The source of these data is PubChem BioAssay (NCI).

What all share (experiment): growth of human tumour cells (NCI), 48 h
For experiment [1], the system named is HOP-92 NSCLC.
For experiment [2], the system named is SN12C renal.
Experiment [3] relates to A549 NSCLC.
Experiment [4] concerns EKVX NSCLC.
The subject of experiment [5] is SK-MEL-28 melanoma.
Experiment [6] has as its system NCI-H522 lung.
The subject of experiment [7] is OVCAR-8 ovarian.
Experiment [8] has as its system SF-295 CNS.
Experiment [9] has as its system PC-3 prostate.
The test system of experiment [10] is BT-549 breast.
Experiment [11] concerns OVCAR-3 ovarian.
The test system of experiment [12] is MDA-MB-231 breast.
Experiment [13] relates to NCI/ADR-RES ovarian.

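Cultured in 96-well plates, cells were exposed to test compound for 48 hours across five concentrations. TGI is the concentration that stops growth completely.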

For `CC(=O)C(CN(C)Cc1ccccc1)C(c1ccccc1)c1c(O)c2ccccc2oc1=O` (stereo not given), the TGI in experiment [1], in experiment [2], in [3], in [4], in experiment [5] and in experiment [6] was above 100 µM throughout. Further, the TGI in experiment [7] and in [8] was above 100 µM each time.
As to `CCOC(=O)CCC(NC(=O)c1ccc(OCc2ccc3nc(OC)c(OC)nc3c2)cc1)C(=O)OCC` (stereo not given), the TGI in [1], in [9], in [2], in [3], in [10] and in [5] was above 100 µM throughout. Further, the TGI is 64.8 µM in experiment [6], 49.9 µM in experiment [11], above 100 µM in experiment [7] and above 100 µM in experiment [8].
Turning to `O=S(=O)(c1ccccc1)n1cnc(CCc2ccccc2)n1`, the TGI in [1], in [2], in experiment [3], in [5], in experiment [6] and in [11] was above 100 µM each time. Moreover, the TGI in [7] and in experiment [8] was above 100 µM throughout.
Take `CC(=O)OCC1=C2C(OC(=O)C(C)C)CC3(COC(C)=O)OC3/C=C\C3(C)OC3C2OC1=O` (stereo not given): the TGI in experiment [12], in [9], in experiment [2], in experiment [3], in experiment [4] and in experiment [10] was above 100 µM each time. Besides, the TGI in experiment [5], in experiment [11], in experiment [7] and in experiment [8] was above 100 µM in each case.
In the case of `COc1ccccc1NC(=O)CC(=O)n1nc(-c2ccccc2)c(N=Nc2ccccc2[N+](=O)[O-])c1-c1ccccc1`, the TGI in [1], in experiment [2], in experiment [3], in experiment [4], in experiment [5] and in experiment [6] was above 100 µM throughout. The TGI in experiment [11], in [7] and in experiment [8] was above 100 µM each time.
As for `CC(=O)[C@H]1[C@@H](OCc2ccccc2)O[N+]([O-])=C(C)[C@@H]1c1ccccc1`, the TGI is 62.4 µM in [1]; above 100 µM in experiment [12]; above 100 µM in experiment [9]; above 100 µM in experiment [3]; above 100 µM in experiment [13]; above 100 µM in experiment [4]. Also, the TGI in experiment [5] is 98.4 µM; in experiment [6], 26.4 µM; in [11], 57.7 µM; in experiment [7], above 100 µM; in experiment [8], above 100 µM.
Take `CCOC(=O)C(Cc1ccc2c(c1)CCC2)Cc1ccc2c(c1)CCC2`: the TGI in experiment [1], in [12], in [9], in experiment [3], in experiment [13] and in [4] was above 100 µM each time. Also, the TGI in [5], in experiment [6], in [11], in experiment [7] and in [8] was above 100 µM throughout.
On to `CC12OC3(C(O)C1O)C(C(=O)O[C@H]3CO[Si](C)(C)C(C)(C)C)C2S(=O)(=O)c1ccccc1` (stereo not given in full), for which the TGI in experiment [1] is above 100 µM; in experiment [12], above 100 µM; in experiment [9] it was 96.3 µM; in experiment [2] it was above 100 µM; in experiment [3], above 100 µM; in [13], 30.4 µM. For the same compound, the TGI in experiment [4] was above 100 µM; in experiment [5], above 100 µM; in experiment [6] it was 47.2 µM; in [11], above 100 µM; in experiment [7], above 100 µM; in experiment [8], above 100 µM.
For `COC(=O)CCN1CCN(CCO)CC1C` (stereo not given), the TGI in experiment [12], in experiment [9], in experiment [2], in experiment [3], in [13] and in experiment [4] was above 10 µM throughout. Moreover, the TGI in experiment [5], in experiment [6], in [11], in [7] and in [8] was above 10 µM in each case.
For `O=C(Cc1nc2ccc(C(=O)c3ccccc3)cc2[nH]c1=O)C(=O)Nc1ccc(C(F)(F)F)cc1[N+](=O)[O-]`, the TGI in experiment [1], in experiment [2], in [3], in experiment [4], in [5] and in experiment [6] was above 100 µM throughout. In addition, the TGI in experiment [11], in [7] and in experiment [8] was above 100 µM throughout.
For `S=C1NCCN1C(=S)NC1CCCCC1`, the TGI in experiment [1] is 66.2 µM; in experiment [12], above 100 µM; in experiment [2], above 100 µM; in experiment [3], 99.1 µM; in experiment [13], above 100 µM; in experiment [4], above 100 µM. Moreover, the TGI was 60.9 µM in experiment [10]; above 100 µM in experiment [5]; 69 µM in [6]; above 100 µM in [11]; above 100 µM in [7]; above 100 µM in experiment [8].
Consider `C[N+](C)(C)CC(=O)N/N=C/c1oc(-c2cccc([N+](=O)[O-])c2)c(-c2cccc([N+](=O)[O-])c2)c1[N+](=O)[O-]`, for which the TGI in [1], in [2], in experiment [3], in [4], in experiment [5] and in experiment [6] was above 100 µM each time. The compound further displayed a TGI in experiment [7] above 100 µM.
With `COC1=CCC2=C(CCN(C(=O)C3CC3)C2Cc2ccc(OC)c(O)c2)C1` (stereo not given), the TGI in experiment [1] is 96.9 µM; in [12], above 100 µM; in [9], above 100 µM; in experiment [2], above 100 µM; in experiment [3] it was above 100 µM; in experiment [13] it was 55.4 µM. Besides, the TGI is above 100 µM in [4]; above 100 µM in experiment [5]; 82.4 µM in experiment [6]; above 100 µM in experiment [11]; above 100 µM in [7]; above 100 µM in [8].
